Paper PMC7036753, “Lipidated Analogs of the LL-37-Derived Peptide Fragment KR12—Structural Analysis, Surface-Active Properties and Antimicrobial Activity” (International Journal of Molecular Sciences, 2020)
≈ marks a conversion by molar mass, not a printed value. Ends that are not written are not given here. Peptide text beside a SMILES is read from it. * marks the point of attachment. Myristoyl = CCCCCCCCCCCCCC(=O)*; Octanoyl = CCCCCCCC(=O)*; X1 = O=C(/C=C/c1ccccc1)*

Key:
S. aureus ATCC 9144 = assay type: cell-based, Staphylococcus aureus; details: ATCC 9144, 18 h
Experimental: (§1) Examination of antimicrobial activity of the test compounds was conducted on reference strains of bacteria assigned to ESKAPE group of pathogens: Enterococcus faecium ATCC 700221, Klebsiella pneumoniae ATCC 700603, Acinetobacter baumannii ATCC BAA-1605, Pseudomonas aeruginosa ATCC 9027, Klebsiella aerogenes ATCC 13048 (formerly Enterobacter aerogenes) and reference strains of Staphylococcus aureus, namely: S. aureus ATCC 25923, S. aureus ATCC 6538, S. aureus ATCC 33591 (MRSA), S. aureus ATCC 9144 and S. aureus ATCC 12598. All the strains were stored at −80 °C in Roti®-Store cryo vials (Carl Roth GmbH, Karlsruhe, Germany) and before the tests were transferred into fresh Mueller-Hinton Medium (BioMaxima, Lublin, Poland) and incubated for 24 h at 37 °C. Subsequently, each bacterial inoculum was seeded on Mueller-Hinton Agar plates (BioMaxima) and incubated again for 24 h. The cultures prepared in this way were used in further antimicrobial assays and prepared as described above. The MIC values were determined by the broth microdilution method according to Clinical and Laboratory Standards Institute Protocol. For this purpose, initial inoculums of bacteria (0.5 × 10^5 colony forming unit (CFU)/mL) in Mueller–Hinton Broth were exposed to the ranging concentrations of compounds (0.5–256 µg/mL) and incubated for 18 h at 37 °C. The experiments were conducted on 96-well microtiter plates, with a final volume of 100 µL. Cell densities were adjusted spectrophotometrically (Multiskan™ GO Microplate Spectrophotometer, Thermo Scientific) at 600 nm. The MICs were taken as the lowest drug concentration at which a visible growth of microorganisms was inhibited. All experiments were conducted in triplicate and included positive (growth) and negative (sterility) controls.

S. aureus ATCC 12598 = assay type: cell-based, Staphylococcus aureus; details: ATCC 12598, 18 h
Experimental: as §1

S. aureus ATCC 25923 = assay type: cell-based, Staphylococcus aureus; details: ATCC 25923, 18 h
Experimental: as §1

S. aureus ATCC 6538 = assay type: cell-based, Staphylococcus aureus; details: ATCC 6538, 18 h
Experimental: as §1

[1] = tested on: S. aureus ATCC 33591 (MRSA); assay type: cell-based, Staphylococcus aureus; details: ATCC 33591, 18 h
Experimental: as §1

[2] = tested on: K. pneumoniae ATCC 700603; assay type: cell-based, Klebsiella pneumoniae; details: ATCC 700603, 18 h
Experimental: as §1

[3] = tested on: A. baumannii ATCC BAA-1605; assay type: cell-based, Acinetobacter baumannii; details: ATCC BAA-1605, 18 h
Experimental: as §1

E. faecium ATCC 700221 = assay type: cell-based, Enterococcus faecium; details: ATCC 700221, 18 h
Experimental: as §1

[4] = tested on: human keratinocytes (HaCaT); assay type: cell-based; details: 24 h
Experimental: The cytotoxicity of test compounds (IC50) was evaluated for human keratinocytes (HaCaT, ATCC) using classic MTT assay on 96-well plates. In this assay, a colorimetric determination of the cell metabolic activity was carried out. Specifically, the color intensity reflects the number of live cells that can be measured spectrophotometrically. […] A day after plating 500 cells per well, a series of concentrations (0.5–500 μg/mL) of the test compounds were added. Dimethyl sulfoxide (DMSO) was used as a control in cells at a final concentration of 1.0% (v/v), which was related to the maximal concentration of the solvent compounds used in the experiment. After 24 h of incubation with test compounds, a medium containing 1 mg/mL of MTT was added up to a final concentration of 0.5 mg/mL and subsequently incubated at 37 °C for 4 h. Then, the medium was aspirated and the formazan product was solubilized with DMSO. The background absorbance at 630 nm was subtracted from that at 570 nm for each well (Epoch, BioTek Instruments, Winooski, VT, USA). Six replicates were conducted for each concentration. All experiments were repeated at least twice and the resulting IC50 values were calculated with a GraFit 7 software (v. 7.0, Erithacus, Berkley, CA, USA).

K. aerogenes ATCC 13048 = assay type: cell-based, Klebsiella aerogenes; details: ATCC 13048, 18 h
Experimental: as §1

ESKAPE strains = assay type: cell-based; details: 24 h
Experimental: as §1, with “For this purpose, initial inoculums of bacteria (0.5 × 10^5 colony forming unit (CFU)/mL) in Mueller–Hinton Broth were exposed to the ranging concentrations of compounds (0.5–256 µg/mL) and incubated for 18 h at 37 °C.” left out, “The MICs were taken as the lowest drug concentration at which a visible growth of microorganisms was inhibited. All experiments were conducted in triplicate and included positive (growth) and negative (sterility) controls.” left out

P. aeruginosa ATCC 9027 = assay type: cell-based, Pseudomonas aeruginosa; details: ATCC 9027, 18 h
Experimental: as §1

[5] = tested on: reference strains of S. aureus; assay type: cell-based, Staphylococcus aureus; details: reference strains of, 24 h
Experimental: as §1, with “For this purpose, initial inoculums of bacteria (0.5 × 10^5 colony forming unit (CFU)/mL) in Mueller–Hinton Broth were exposed to the ranging concentrations of compounds (0.5–256 µg/mL) and incubated for 18 h at 37 °C.” left out

[6] = tested on: S. aureus ATCC 9144 biofilm; assay type: cell-based, Staphylococcus aureus; details: ATCC 9144, 24 h
Experimental: (§2) The MBECs values were determined according to the method reported previously. Briefly, 24-h cultures of S. aureus, namely: S. aureus ATCC 25923, S. aureus ATCC 6538, S. aureus ATCC 33591 (MRSA), S. aureus ATCC 9144 and S. aureus ATCC 12598 were diluted to a concentration of 0.5 × 10^7 CFU/mL and added to the test wells of polystyrene microdilution flat-bottom plates. After 24-h of incubation at 37 °C, the wells were rinsed three times with PBS to remove non-adherent cells. Subsequently, 100 μL of the test compounds over a concentration range 0.5–256 µg/mL were added to each well and incubated again for 24 h at 37 °C. After this period, 20 μL of the resazurin (7-hydroxy-3H-phenoxazin-3-one-10-oxide, 4 mg/mL) solution was added to each well. After 1 h of incubation, the MBECs were read out. The determined values were recorded as the lowest concentration at which the reduction of resazurin (from blue to pink) was lower or equal to 10 ± 0.5% as compared to the positive (100%) and negative (0%) controls. All experiments were performed in triplicate.

[7] = tested on: S. aureus ATCC 25923 biofilm; assay type: cell-based, Staphylococcus aureus; details: ATCC 25923, 24 h
Experimental: as §2

[8] = tested on: S. aureus ATCC 6538 biofilm; assay type: cell-based, Staphylococcus aureus; details: ATCC 6538, 24 h
Experimental: as §2

[9] = tested on: S. aureus ATCC 33591 (MRSA) biofilm; assay type: cell-based, Staphylococcus aureus; details: ATCC 33591, 24 h
Experimental: as §2

[10] = tested on: S. aureus ATCC 12598 biofilm; assay type: cell-based, Staphylococcus aureus; details: ATCC 12598, 24 h
Experimental: as §2

[11] = tested on: biofilm of S. aureus strains; assay: MBEC over reference strains of S. aureus; assay type: cell-based, Staphylococcus aureus
Experimental: as §2

Row | Compound | MIC (S. aureus ATCC 9144) | MIC (S. aureus ATCC 12598) | MIC (S. aureus ATCC 25923) | MIC (S. aureus ATCC 6538) | MIC [1] | MIC [2] | MIC [3] | MIC (E. faecium ATCC 700221) | IC50 [4] | MIC (K. aerogenes ATCC 13048) | MIC range (ESKAPE strains) | MIC (P. aeruginosa ATCC 9027) | GM (geometric mean of the MIC values against S. aureus) [5] | MBEC [6] | MBEC [7] | MBEC [8] | MBEC [9] | MBEC [10] | MBEC range [11]
1 | CCCCCCCC(=O)N[C@@H](CCCCN)C(=O)N[C@@H](CCCNC(=N)N)C(=O)N[C@H](C(=O)N[C@H](C(=O)N[C@@H](CCC(N)=O)C(=O)N[C@@H](CCCNC(=N)N)C(=O)N[C@H](C(=O)N[C@@H](CCCCN)C(=O)N[C@@H](CC(=O)O)C(=O)N[C@@H](Cc1ccccc1)C(=O)N[C@@H](CC(C)C)C(=O)N[C@@H](CCCNC(=N)N)C(N)=O)[C@@H](C)CC)C(C)C)[C@@H](C)CC [IV, C8-KR12-NH2] (Octanoyl-KRIVQRIKDFLR-NH2) | 2 µg/mL (≈ 1.18 µM) | 4 µg/mL (≈ 2.36 µM) | 2 µg/mL (≈ 1.18 µM) | 2 µg/mL (≈ 1.18 µM) | 2 µg/mL (≈ 1.18 µM) | 2 µg/mL (≈ 1.18 µM) | 2 µg/mL (≈ 1.18 µM) | 1 µg/mL (≈ 0.589 µM) | 3.23 µg/mL (≈ 1.9 µM) | 2 µg/mL (≈ 1.18 µM) | 1 to 4 µg/mL | 2 µg/mL (≈ 1.18 µM) | 2.30 µg/mL | 4 µg/mL | 8 µg/mL | 16 µg/mL | 4 µg/mL | 4 µg/mL | 4 to 16 µg/mL
2 | CC[C@H](C)[C@H](NC(=O)[C@H](CCCNC(=N)N)NC(=O)[C@H](CCC(N)=O)NC(=O)[C@@H](NC(=O)[C@@H](NC(=O)[C@H](CCCNC(=N)N)NC(=O)[C@H](CCCCN)NC(=O)/C=C/c1ccccc1)[C@@H](C)CC)C(C)C)C(=O)N[C@@H](CCCCN)C(=O)N[C@@H](CC(=O)O)C(=O)N[C@@H](Cc1ccccc1)C(=O)N[C@@H](CC(C)C)C(=O)N[C@@H](CCCNC(=N)N)C(N)=O [IX, trans-Cinnamic acid-KR12-NH2] (X1-KRIVQRIKDFLR-NH2) | 4 µg/mL (≈ 2.35 µM) | 4 µg/mL (≈ 2.35 µM) | 8 µg/mL (≈ 4.7 µM) | 2 µg/mL (≈ 1.18 µM) | 4 µg/mL (≈ 2.35 µM) | 4 µg/mL (≈ 2.35 µM) | 4 µg/mL (≈ 2.35 µM) | 1 µg/mL (≈ 0.588 µM) | 10.00 µg/mL (≈ 5.88 µM) | 4 µg/mL (≈ 2.35 µM) | 1 to 8 µg/mL | 4 µg/mL (≈ 2.35 µM) | 4.00 µg/mL | 8 µg/mL | 32 µg/mL | 8 µg/mL | 16 µg/mL | 4 µg/mL | 
3 | CCCCCCCCCCCCCC(=O)N[C@@H](CCCCN)C(=O)N[C@@H](CCCNC(=N)N)C(=O)N[C@H](C(=O)N[C@H](C(=O)N[C@@H](CCC(N)=O)C(=O)N[C@@H](CCCNC(=N)N)C(=O)N[C@H](C(=O)N[C@@H](CCCCN)C(=O)N[C@@H](CC(=O)O)C(=O)N[C@@H](Cc1ccccc1)C(=O)N[C@@H](CC(C)C)C(=O)N[C@@H](CCCNC(=N)N)C(N)=O)[C@@H](C)CC)C(C)C)[C@@H](C)CC [VII, C14-KR12-NH2] (Myristoyl-KRIVQRIKDFLR-NH2) | 64 µg/mL (≈ 35.9 µM) | 128 µg/mL (≈ 71.9 µM) | 128 µg/mL (≈ 71.9 µM) | 64 µg/mL (≈ 35.9 µM) | 16 µg/mL (≈ 8.98 µM) | 64 µg/mL (≈ 35.9 µM) | 32 µg/mL (≈ 18 µM) | 8 µg/mL (≈ 4.49 µM) | 1.29 µg/mL (≈ 0.724 µM) | 128 µg/mL (≈ 71.9 µM) |  | 128 µg/mL (≈ 71.9 µM) | 64.00 µg/mL | 128 µg/mL | 256 µg/mL | 256 µg/mL | 256 µg/mL | 64 µg/mL | 
4 | Ac-KRIVQRIKDFLR-NH2 [I, Ac-KR12-NH2 (C2-KR12-NH2)] | >256 µg/mL | >256 µg/mL | >256 µg/mL | 256 µg/mL | >256 µg/mL | >256 µg/mL | >256 µg/mL | 16 µg/mL | 84.20 µg/mL | >256 µg/mL |  | 64 µg/mL | >256.00 µg/mL | >256 µg/mL | >256 µg/mL | >256 µg/mL | >256 µg/mL | >256 µg/mL | 
5 | KRIVQRIKDFLR-NH2 [X, KRIVQRIKDFLR-NH2] | >256 µg/mL | >256 µg/mL | >256 µg/mL | 256 µg/mL | >256 µg/mL | >256 µg/mL | 256 µg/mL | 8 µg/mL | 74.60 µg/mL | >256 µg/mL |  | 16 µg/mL | >256.00 µg/mL | >256 µg/mL | >256 µg/mL | >256 µg/mL | >256 µg/mL | >256 µg/mL | 
